According to PMC10873978, “Novel tetrahydroisoquinolines as DHFR and CDK2 inhibitors: synthesis, characterization, anticancer activity and antioxidant properties” (BMC Chemistry, 2024):

Assays:
[1] = test system: MCF7 cell line; assay: In vitro cytotoxic activity, MTT method, MCF7; assay type: cell-based, human; settings: for IC50: Homo sapiens, MCF7, MCF7 cell line, MTT
Protocol: (§1) Cell lines: The in vitro human breast cancerous cell line (MCF7), lung cancerous cell lines (A549) and normal cell lines were purchased from Serum and Vaccine formulation in Cairo-Egypt.
(§2) In vitro cytotoxic activity of all synthesized compounds against two human breast cell line (MCF7) and lung cell lines (A549) was evaluated according to the MTT method. Firstly, Growth the cell line medium in 96 well tissue culture plate was injected with 10^5 cells/mL (100 uL/plate well) of the cell line and incubated at 37 °C for 24 h to develop a monolayer sheet then the formed growth medium was poured from 96 well microtiter plates after the confluent sheet of cells. […] Secondly, add 0.1 mL of each concentration tetrahydroisoquinoline sample to each plate. The plates were incubated at 37 °C. Thirdly MTT solution (5 mg/mL in PBS) is prepared. Add 20 µL of MTT solution to each well plates. And shaking in 150 rpm for 5 min, to mix the MTT into the media. Then incubate at (37 °C, 5% CO2) for 1–5 h. Finally read the optical density at 560 nm and subtract background at 620 nm.
(§3) In this work, doxorubicin was used as a positive control drug for comparison with the synthesized compounds under the same experimental conditions.

[2] = DPPH scavenging antioxidant activity
Protocol: The antioxidant activity of ten compounds was determined using DPPH [32–34]. A solution 1: prepared by dissolving DPPH (0.002 g) in ethanol (50 mL etnanol). Solution 2: prepared by dissolving different weights 0.05, 0.01 g of each sample in 1 mL of DMSO then take 10 µL of each sample solution with 1 mL ethanol. Then mix 1 mL of solution 1 with 1 mL of solution 2 then vortex the resulting mixture in the dark for about 30 min. The absorbance of the mixture was measured by spectrophotometer at λmax = 517 nm against blank 1 mL absolute ethanol and compared to the ascorbic acid (Vitamin C).
Ten newly synthesized compounds were studied as in vitro antioxidants by measuring of their DPPH scavenging activity which is represented as a percentage % [32]^. Results are represented by mean ± SD of three replicates. […] The higher dose concentration of 0.05 μg/mL represents higher antioxidant activity. […] The high antioxidant activity is referred to the presence of C=O, NH2, and OH groups like ascorbic acid which can be easily oxidized and reduced and can be used as antioxidant drugs. (Fig. 8 and Table 9).

[3] = test system: A549 cell line; assay: In vitro cytotoxic activity, MTT method, A549; settings: for IC50: Homo sapiens, read-out: IC50 ± SD
Protocol: as §1, §2, §3

For `CC(=O)c1ccc(NC(=O)CSc2nc(C)c3c(c2C#N)CC(C)(O)C(C(C)=O)C3c2ccc(N(C)C)cc2)cc1` (centres unmarked) [Compound 7d, 2-[(7-Acetyl-4-cyano-1,6-dimethyl-6-hydroxy-8-(4-N,N-dimethylamino-phenyl)-5,6,7,8-tetrahydroisoquinolin-3-yl)thio]-N-(4-acetylphenyl)acetamide], the IC50 [1] was 495 ± 2 nM, the Toxicity % ([1]; MCF7, 0.0487 µMol) was 1.8855% and the Viability % ([1]; MCF7, 0.0487 µMol) was 98.2255%. It also gave a Toxicity % ([1]; MCF7, 0.0975 µMol) of 3.5566%, a Viability % ([1]; MCF7, 0.0975 µMol) of 96.5544% and a Toxicity % ([1]; MCF7, 0.195 µMol) of 5.106%. The Viability % ([1]; MCF7, 0.195 µMol) was 94.89%, the Toxicity % ([1]; MCF7, 0.391 µMol) was 28.72% and the Viability % ([1]; MCF7, 0.391 µMol) was 71.28%. For the same compound, the Toxicity % ([1]; MCF7, 0.781 µMol) was 52.53%, the Viability % ([1]; MCF7, 0.781 µMol) was 47.47% and the Toxicity % ([1]; MCF7, 1.562 µMol) was 65.69%. The Viability % ([1]; MCF7, 1.562 µMol) was 34.31%, the Toxicity % ([1]; MCF7, 3.125 µMol) was 76.63% and the Viability % ([1]; MCF7, 3.125 µMol) was 23.37%. For the same compound, the Toxicity % ([1]; MCF7, 6.25 µMol) was 94.04%, the Viability % ([1]; MCF7, 6.25 µMol) was 5.964% and the Toxicity % ([1]; MCF7, 12.5 µMol) was 96.65%. For the same compound, the Viability % ([1]; MCF7, 12.5 µMol) was 3.35%, the Toxicity % ([1]; MCF7, 25 µMol) was 96.73% and the Viability % ([1]; MCF7, 25 µMol) was 3.268%. For the same compound, the “DPPH scavenging, inhibition (%)” value ([2]; 0.01 µg/mL) was 48.08 ± 0.87%, the “DPPH scavenging, inhibition (%)” value ([2]; 0.05 µg/mL) was 69.73 ± 0.73% and the Toxicity % ([3]; A549, Conc. 0.04875 µMol) was 1.982%. For the same compound, the Viability % ([3]; A549, Conc. 0.04875 µMol) was 98.02%, the Toxicity % ([3]; A549, Conc. 0.0975 µMol) was 2.4569% and the Viability % ([3]; A549, Conc. 0.0975 µMol) was 97.5431%. It also gave a Toxicity % ([3]; A549, Conc. 0.195 µMol) of 3.708%, a Viability % ([3]; A549, Conc. 0.195 µMol) of 96.29% and a Toxicity % ([3]; A549, Conc. 0.391 µMol) of 36.8%. For the same compound, the Viability % ([3]; A549, Conc. 0.391 µMol) was 63.2%, the Toxicity % ([3]; A549, Conc. 0.781 µMol) was 53.89% and the Viability % ([3]; A549, Conc. 0.781 µMol) was 46.11%. It also gave a Toxicity % ([3]; A549, Conc. 1.562 µMol) of 70.45%, a Viability % ([3]; A549, Conc. 1.562 µMol) of 29.55% and a Toxicity % ([3]; A549, Conc. 3.125 µMol) of 77.08%. The Viability % ([3]; A549, Conc. 3.125 µMol) was 22.92%, the Toxicity % ([3]; A549, Conc. 6.25 µMol) was 86.79% and the Viability % ([3]; A549, Conc. 6.25 µMol) was 13.21%. The Toxicity % ([3]; A549, Conc. 12.5 µMol) was 92.98%, the Viability % ([3]; A549, Conc. 12.5 µMol) was 7.022% and the Toxicity % ([3]; A549, Conc. 25 µMol) was 96.61%. The Viability % ([3]; A549, Conc. 25 µMol) was 3.393% and the IC50 [3] was 446 ± 4 nM.
With `CC(=O)C1C(c2ccc(N(C)C)cc2)c2c(C)nc3sc(C(=O)Nc4ccccc4)c(N)c3c2CC1(C)O` (centres unmarked) [Compound 8a, 7-Acetyl-1-amino-5,8-dimethyl-8-hydroxy-6-(4-N,N-dimethylaminophenyl)-N-phenyl-6,7,8,9-tetrahydrothieno[2,3-c]isoquinoline-2-carboxamide] the IC50 [1] was 872 ± 3 nM, the Toxicity % ([1]; MCF7, Conc. 0.0487 µMol) was -1.567% and the Viability % ([1]; MCF7, Conc. 0.0487 µMol) was 101.5%. For the same compound, the Toxicity % ([1]; MCF7, Conc. 0.0975 µMol) was -0.5332%, the Viability % ([1]; MCF7, Conc. 0.0975 µMol) was 100.6% and the Toxicity % ([1]; MCF7, Conc. 0.195 µMol) was -0.4085%. It also gave a Viability % ([1]; MCF7, Conc. 0.195 µMol) of 100.4%, a Toxicity % ([1]; MCF7, Conc. 0.391 µMol) of 8.047% and a Viability % ([1]; MCF7, Conc. 0.391 µMol) of 91.95%. It also gave a Toxicity % ([1]; MCF7, Conc. 0.781 µMol) of 34.56%, a Viability % ([1]; MCF7, Conc. 0.781 µMol) of 65.44% and a Toxicity % ([1]; MCF7, Conc. 1.562 µMol) of 65.28%. It also gave a Viability % ([1]; MCF7, Conc. 1.562 µMol) of 34.72%, a Toxicity % ([1]; MCF7, Conc. 3.125 µMol) of 87.21% and a Viability % ([1]; MCF7, Conc. 3.125 µMol) of 12.79%. It also gave a Toxicity % ([1]; MCF7, Conc. 6.25 µMol) of 94.16%, a Viability % ([1]; MCF7, Conc. 6.25 µMol) of 5.842% and a Toxicity % ([1]; MCF7, Conc. 12.5 µMol) of 96.9%. It also gave a Viability % ([1]; MCF7, Conc. 12.5 µMol) of 3.105%, a Toxicity % ([1]; MCF7, Conc. 25 µMol) of 97.43% and a Viability % ([1]; MCF7, Conc. 25 µMol) of 2.574%. The “DPPH scavenging, inhibition (%)” value ([2]; 0.01 µg/mL) was 14.22 ± 1.32%, the “DPPH scavenging, inhibition (%)” value ([2]; 0.05 µg/mL) was 23.66 ± 2.12% and the Toxicity % ([3]; A549, Conc. 0.04875 µMol) was 3.135%. The Toxicity % ([3]; A549, Conc. 0.0975 µMol) was 3.679%, the Toxicity % ([3]; A549, Conc. 0.195 µMol) was 4.221% and the Viability % ([3]; A549, Conc. 0.195 µMol) was 95.78%. The Toxicity % ([3]; A549, Conc. 0.391 µMol) was 10.77%, the Viability % ([3]; A549, Conc. 0.391 µMol) was 89.23% and the Toxicity % ([3]; A549, Conc. 0.781 µMol) was 39.61%. For the same compound, the Viability % ([3]; A549, Conc. 0.781 µMol) was 60.39%, the Toxicity % ([3]; A549, Conc. 1.562 µMol) was 53.57% and the Viability % ([3]; A549, Conc. 1.562 µMol) was 46.43%. It also gave a Toxicity % ([3]; A549, Conc. 3.125 µMol) of 74.67%, a Viability % ([3]; A549, Conc. 3.125 µMol) of 25.33% and a Toxicity % ([3]; A549, Conc. 6.25 µMol) of 88.24%. The Viability % ([3]; A549, Conc. 6.25 µMol) was 11.76%, the Toxicity % ([3]; A549, Conc. 12.5 µMol) was 96.69% and the Viability % ([3]; A549, Conc. 12.5 µMol) was 3.314%. It also gave a Toxicity % ([3]; A549, Conc. 25 µMol) of 97.95%, a Viability % ([3]; A549, Conc. 25 µMol) of 2.051% and an IC50 [3] of 1045 ± 6 nM.
